Experimental data: patent US20180228780A1, “3-(1H-PYRROLO[2,3-C]PYRIDIN-2-YL)-1H-INDAZOLES AND THERAPEUTIC USES THEREOF” (Samumed, LLC, priority 2015, published 2018)

Assays:
Assay type in all cases: cell-based
[1] = system: primary human mesenchymal stem cells (hMSCs); test: Induction of chondrogenesis in hMSCs (nodule imaging, Rhodamine B / Nile Red); conditions: 6 days; for EC50: concentration required to induce 50% levels of chondrogenesis vs TGF-β3, read-out: Conc (nM) of 50% TGF-β3 activity; for Emax: relative to TGF-β3 (10 ng/mL) positive control, read-out: Max. Activity as % TGF-β3 activity
From the text: Representative compounds were screened using primary human mesenchymal stem cells (hMSCs) to determine their ability to induce chondrogenesis (process by which cartilage is developed).
Primary human mesenchymal stem cells (hMSCs) were purchased from Lonza (Walkersville, Md.) and expanded in Mesenchymal Stem Cell Growth Media (Lonza). Cells between passage 3 and 6 were used for the experiments.
Area of nodules in each well was normalized to the average of 3 DMSO treated wells on the same plate using Excel (Microsoft Inc.). The normalized averages (fold change over DMSO) of 2 or 3 replicate wells for each compound concentration were calculated. Due to solubility limitations of some of the compounds, curve fitting was incomplete leading to inaccurate EC50 determinations.
Using TGF-β3 as a positive control, the concentration of representative compounds required to induce 50% levels of chondrogenesis is reported. In addition, the maximum activity of each compound and the respective dose that each compound reached maximum chondrogenesis activity is reported.

[2] = system: Primary human fibroblasts derived from IPF patients (LL29 cells); test: Inhibition of the fibrotic process: αSMA staining in TGF-β1-treated LL29 fibroblasts; conditions: Fibroblast; for EC50: 96 h, LL29 cells, TGF-β1 20 ng/mL, 4 days, % αSMA-positive cells; for inhibition at 10 µM: read-out: percent inhibition at 10 μM
From the text: Representative compounds were screened using primary human fibroblasts (derived from IFF patients) treated with TGF-β1 to determine their ability to inhibit the fibrotic process.
K. L., et.al., “RhoA signaling modulates cyclin D1 expression in human lung fibroblasts; implications for idiopathic pulmonary fibrosis”, Respiratory Research (2006), 7(1), 88] were obtained from American Type Culture Collection (ATCC) and expanded in F12 medium supplemented with 15% Fetal Bovine Serum and Penicillin/Streptomycin.
LL29 cells are plated at 1,500 cells/well in 80 μL/well F12 medium supplemented with 1% Fetal Bovine Serum. […] Wells treated with TGF-β1 and containing DMSO were used as controls. […] Following incubation for 4 days, SYTOX green nucleic acid stain (Life Technologies [Thermo Fisher Scientific]) was added to the wells at a final concentration of 1 μM and incubated at room temperature for 30 min.

SW480 colon cancer cells = test: Cell viability assay (CellTiter-Blue) in SW480 colon cancer cells; conditions: Homo sapiens; for EC50: 96 h, SW480 cell viability, four days incubation; for inhibition at 10 µM: SW480, read-out: percent inhibition at 10 μM
Procedure: Representative compounds were screened using the following assay procedure to assess the effect on cell viability as described below.
Approximately 2×10^3 SW480 colon cancer cells were seeded into each well and allowed to incubate in the presence or absence of compound for four days at 37° C./5% CO2. Eight replicates of DMSO-treated cells served as controls and cells treated with compound were performed in duplicate.
After incubation, 20 μL of CellTiter-Blue (Promega) was added to each well allowed to incubate for approximately 3 hours. This reagent was a buffered solution which contains resazurin, metabolically active cells were able to reduce rezarurin (blue) into resorufin (pink) which was highly fluorescent. This measured fluorescence was used as a readout for cell viability.

IL-6 (THP-1 cells) = test: IL-6 inhibition in THP-1 monocytes (HTRF); conditions: Homo sapiens; for EC50: IL-6 inhibition, THP-1 cells, HTRF, 10-point dose-response starting from 10 μM
Procedure: Compound Screening: THP-1 cells were cultured in basal media with 1% FBS for 24 hours before the start of the assay. […] THP-1 cells were plated at 5000 cells/well in the 384-well plates and incubated at 37° C. for 2 h. 500 ng/mL of […] was added after 2 hours and cells were incubated for another 22 hours at 37° C. Plates were spun in a centrifuge for 1 minute at 10,000 rpm and a mixture of anti-IL6 XL665, and anti-IL6 Cryptate diluted in reconstitution buffer (Cisbio Inc.) was added to each well. Following incubation for 3 hrs at room temperature, Homogeneous Time-Resolved Fluorescence (HTRF) was measured using the Envision (Perkin Elmer) at 665 nm and […]. The ratio of fluorescence at 665 nm to 620 nm was used as a readout for IL6 quantification. All samples were processed in duplicate. Readings were normalized to DMSO treated cells and normalized activities were utilized for EC50 calculations using the dose-response log (inhibitor) vs. response-variable slope (four parameters) nonlinear regression feature available in GraphPad Prism 5.0 (or Dotmatics).

[3] = system: Wnt activity (Sp5-Luc reporter, SW480 colon carcinoma cells); test: Screening assay for Wnt activity: Sp5-Luc reporter gene assay in SW480 cells; conditions: Homo sapiens; for EC50: SW480 Sp5-Luc reporter, overnight incubation; for inhibition at 10 µM: SW480, read-out: percent inhibition at 10 μM
From the text: The screening assay for Wnt activity is described as follows. Reporter cell lines can be generated by stably transducing cancer cell lines (e.g., colon cancer) or primary cells (e.g., IEC-6 intestinal cells) with a lentiviral construct that includes a Wnt-responsive promoter driving expression of the firefly luciferase gene.
SW480 colon carcinoma cells were transduced with a lentiviral vector expressing luciferase with a human Sp5 promoter consisting of a sequence of eight TCF/LEF binding sites. SW480 cells stably expressing the Sp5-Luc reporter gene and a hygromycin resistance gene were selected by treatment with 150 μg/mL of hygromycin for 7 days. These stably transduced SW480 cells were expanded in cell culture and used for all further screening activities. […] For Sp5-Luc reporter gene assays, the cells were plated at 4,000 cells/well in 384-well plates with medium containing 1% fetal bovine serum and incubated overnight at 37° C. and 5% CO2. Following incubation, 20 μl of BrightGlo luminescence reagent (Promega) was added to each well of the 384-well assay plates. The plates were placed on an orbital shaker for 2 min and then luminescence was quantified using the Envision (Perkin Elmer) plate reader. Readings were normalized to DMSO only treated cells, and normalized activities were utilized for EC50 calculations using the dose-response log (inhibitor) vs. response-variable slope (four parameters) nonlinear regression feature available in GraphPad Prism 5.0 (or Dotmatics).

Row | SMILES | EC50 [1] [nM] | Emax [1] [%] | EC50 [2] [nM] | EC50 (SW480 colon cancer cells) [nM] | EC50 (IL-6 (THP-1 cells)) [nM] | EC50 [3] [nM] | inhibition at 10 µM (SW480 colon cancer cells) [%] | inhibition at 10 µM [3] [%] | inhibition at 10 µM [2] [%] | inhibition at 10 µM (IL-6 (THP-1 cells); THP-1, read-out: percentage in parentheses printed under EC50 >10) [%]
1 | CN(C)Cc1cncc(-c2ccc3[nH]nc(-c4cc5c(-c6cccc(F)c6)cncc5[nH]4)c3c2)c1 [Compound 13, 1-(5-(3-(4-(3-Fluorophenyl)-1H-pyrrolo[2,3-c]pyridin-2-yl)-1H-indazol-5-yl)pyridin-3-yl)-N,N-dimethylmethanamine] | 10 | 193 | 952 | 420 | 75 | 1280 |  |  |  | 
2 | O=C(Nc1cncc(-c2ccc3[nH]nc(-c4cc5c(-c6cccc(F)c6)cncc5[nH]4)c3c2)c1)C1CC1 [Compound 20, N-(5-(3-(4-(3-Fluorophenyl)-1H-pyrrolo[2,3-c]pyridin-2-yl)-1H-indazol-5-yl)pyridin-3-yl)cyclopropanecarboxamide] | 900 | 94 | 122 | 67 | 17 | 45 |  |  |  | 
3 | Fc1cccc(-c2cncc3[nH]c(-c4n[nH]c5ccc(-c6cncc(CN7CCC(F)(F)C7)c6)cc45)cc23)c1 [Compound 26, 5-(5-((3,3-Difluoropyrrolidin-1-yl)methyl)pyridin-3-yl)-3-(4-(3-fluorophenyl)-1H-pyrrolo[2,3-c]pyridin-2-yl)-1H-indazole] | 2700 | 87 | 322 | 734 | 74 | 160 |  |  |  | 
4 | Fc1cccc(-c2cncc3[nH]c(-c4n[nH]c5ccc(-c6ccccn6)cc45)cc23)c1 [Compound 28, 3-(4-(3-Fluorophenyl)-1H-pyrrolo[2,3-c]pyridin-2-yl)-5-(pyridin-2-yl)-1H-indazole] |  | 26 | 460 | 355 | 2420 | 670 |  |  |  | 
5 | Nc1cncc(-c2ccc3[nH]nc(-c4cc5c(-c6ccccc6F)cncc5[nH]4)c3c2)c1 [Compound 59, 5-(3-(4-(2-Fluorophenyl)-1H-pyrrolo[2,3-c]pyridin-2-yl)-1H-indazol-5-yl)pyridin-3-amine] | 10 | 58 | 2900 | > 10000 | 4500 | 875 | 27.9 |  |  | 
6 | CCNCc1cncc(-c2ccc3[nH]nc(-c4cc5c(-c6ccccc6F)cncc5[nH]4)c3c2)c1 [Compound 62, N-((5-(3-(4-(2-Fluorophenyl)-1H-pyrrolo[2,3-c]pyridin-2-yl)-1H-indazol-5-yl)pyridin-3-yl)methyl)ethanamine] | 100 | 86 | 9730 | 4720 | 7510 | > 10000 |  | 51 |  | 
7 | c1cncc(-c2ccc3[nH]nc(-c4cc5c(-c6cccnc6)cncc5[nH]4)c3c2)c1 [Compound 88, 5-(Pyridin-3-yl)-3-(4-(pyridin-3-yl)-1H-pyrrolo[2,3-c]pyridin-2-yl)-1H-indazole] | 100 | 58 | > 10000 | 495 | 105 | 310 |  |  | 0 | 
8 | CC(C)C(=O)Nc1cncc(-c2ccc3[nH]nc(-c4cc5c(-c6cccnc6)cncc5[nH]4)c3c2)c1 [Compound 93, N-(5-(3-(4-(Pyridin-3-yl)-1H-pyrrolo[2,3-c]pyridin-2-yl)-1H-indazol-5-yl)pyridin-3-yl)isobutyramide] |  | 34 | 175 | 584 | 247 | 260 |  |  |  | 
9 | O=C(Nc1cncc(-c2ccc3[nH]nc(-c4cc5c(-c6cccnc6)cncc5[nH]4)c3c2)c1)c1ccccc1 [Compound 95] | 10 | 69 | > 10000 | > 10000 | 1710 | > 10000 | 22.7 | 32.4 | 34.2 | 
10 | CC(C)Nc1cncc(-c2ccc3[nH]nc(-c4cc5c(-c6cccnc6)cncc5[nH]4)c3c2)c1 [Compound 96, N-Isopropyl-5-(3-(4-(pyridin-3-yl)-1H-pyrrolo[2,3-c]pyridin-2-yl)-1H-indazol-5-yl)pyridin-3-amine] |  | 42 | 315 | 836 | 128 | 670 |  |  |  | 
11 | c1cncc(-c2cncc3[nH]c(-c4n[nH]c5ccc(-c6cncc(CN7CCCCC7)c6)cc45)cc23)c1 [Compound 99, 5-(5-(Piperidin-1-ylmethyl)pyridin-3-yl)-3-(4-(pyridin-3-yl)-1H-pyrrolo[2,3-c]pyridin-2-yl)-1H-indazole] |  | 40 | 4040 | 3370 | 5700 | > 10000 |  | 31.2 |  | 
12 | O=C(Nc1cncc(-c2ccc3[nH]nc(-c4cc5c(-c6cccnc6)cncc5[nH]4)c3c2)c1)C1CCCC1 [Compound 106, N-(5-(3-(4-(Pyridin-3-yl)-1H-pyrrolo[2,3-c]pyridin-2-yl)-1H-indazol-5-yl)pyridin-3-yl)cyclopentanecarboxamide] |  | 45 | 2320 | 2030 | 209 | 1400 |  |  |  | 
13 | FC1(F)CCN(Cc2cncc(-c3ccc4[nH]nc(-c5cc6c(-c7cccnc7)cncc6[nH]5)c4c3)c2)C1 [Compound 110, 5-(5-((3,3-Difluoropyrrolidin-1-yl)methyl)pyridin-3-yl)-3-(4-(pyridin-3-yl)-1H-pyrrolo[2,3-c]pyridin-2-yl)-1H-indazole] | 900 | 256 | 337 | 1280 | 353 | 526 |  |  |  | 
14 | c1cncc(-c2cncc3[nH]c(-c4n[nH]c5ccc(-c6cncnc6)cc45)cc23)c1 [Compound 111, 3-(4-(pyridin-3-yl)-1H-pyrrolo[2,3-c]pyridin-2-yl)-5-(pyrimidin-5-yl)-1H-indazole] | 2700 | 58 | > 10000 | > 10000 | > 10000 | > 10000 | 7.5 | 14.5 | 46.5 | 42.4
